Key:
HSV-1 = experiment: Antiviral activity, HSV-1 in Vero cells, plaque method; format: cell-based; details: Human alphaherpesvirus 1, 20 hours, 90% inhibition of plaque formation
In short: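 HSV-1 (50,000 pfu in 2% FBS-DMEM) was added to Vero cells and removed, then the compound was applied in 2% FBS-DMEM for 20 h at 37° C, 5% CO2. After a freeze-thaw, virus yield in the medium was titred by plaque assay. EC90 is the concentration giving 90% plaque reduction versus the compound-free control.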

HSV-1 protease = biological target: T1, HSV-1 protease (Human herpesvirus 1, UniProt P10210); experiment: Enzymatic assay for HSV-1 protease (assembly) inhibitor, fluorescence polarization; format: biochemical; details: read-out: HSV-1 Enzyme inhibition IC50
T1 construct: 6xHis (N); made in house; host or cells: baculovirus expression system
In short: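 His6-tagged HSV-1 UL26 protease, baculovirus-expressed, preincubated 30 min at RT with compound in 1 M citrate/phosphate buffer pH 7.4 with 20% glycerol and 2 mM TCEP. A biotin-HTYLQA*SERFRIK-DTAF substrate was then cleaved for 60 min at RT, stopped with avidin, and read by fluorescence polarization versus no-inhibitor control.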

Vero cells = experiment: Cytotoxicity, Vero cells, Alamar Blue; format: cell-based; details: 25 μM, 20 hours
In short: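 Overnight-seeded Vero cells were exposed to 25 μM compound in 2% FBS-DMEM for 20 h at 37 °C, 5% CO2. Alamar Blue was then added for about 6 h. The absorbance ratio relative to compound-free control gave the living-cell ratio.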

T1 sequence (P10210 1-247): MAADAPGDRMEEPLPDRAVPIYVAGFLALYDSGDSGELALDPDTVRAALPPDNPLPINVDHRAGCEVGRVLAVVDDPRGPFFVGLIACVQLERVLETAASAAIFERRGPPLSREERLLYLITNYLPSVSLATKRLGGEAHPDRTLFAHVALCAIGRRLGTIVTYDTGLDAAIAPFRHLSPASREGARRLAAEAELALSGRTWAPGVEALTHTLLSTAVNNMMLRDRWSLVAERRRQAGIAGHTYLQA

| EC90 (HSV-1) [µM] | IC50 (HSV-1 protease) [µM] | Compound | Cell viability (% of control) (Vero cells) [%] |
| --- | --- | --- | --- |
| 6.1 | 2.7 | Cc1c(NC(=O)OC(C)(C)C)ccc2nc(N[C@H](C(=O)N(C)CCc3ccncc3)C(C)C)oc(=O)c12 [Compound No.53, (5-Methyl-2-{2-methyl-1S-[methyl-(2-pyridin-4-yl-ethyl)-carbamoyl]-propylamino}-4-oxo-4H-benzo[d][1,3]oxazin-6-yl)-carbamic acid tert-butyl ester] | 106.0 |
| < 3.2 | 1.2 | Cc1c(NC(=O)OC(C)(C)C)ccc2nc(N[C@@H](CC3CCCCC3)C(=O)N(C)Cc3ccccn3)oc(=O)c12 [Compound No.63, {2-[2-Cyclohexyl-1S-(methyl-pyridin-2-ylmethyl-carbamoyl)-ethylamino]-5-methyl-4-oxo-4H-benzo[d][1,3]oxazin-6-yl}-carbamic acid tert-butyl ester] | 60.1 |
| > 12.5 | 7.4 | Cc1c(NC(=O)OC(C)(C)C)ccc2nc(N3CCCC[C@H]3C(=O)N(C)CCc3cccnc3)oc(=O)c12 [Compound No.107, (5-Methyl-2-{2S-[methyl-(2-pyridin-3-yl-ethyl)-carbamoyl]-piperidin-1-yl}-4-oxo-4H-benzo[d][1,3]oxazin-6-yl)-carbamic acid tert-butyl ester] | 45.4 |
| < 3.2 | 0.9 | Cc1c(NC(=O)OC(C)(C)C)ccc2nc(N[C@@H](C)C(=O)N(C)CCc3ccncc3)oc(=O)c12 [Compound No.50, (5-Methyl-2-{1S-[methyl-(2-pyridin-4-yl-ethyl)-carbamoyl]-ethylamino}-4-oxo-4H-benzo[d][1,3]oxazin-6-yl)-carbamic acid tert-butyl ester] | 106.0 |
| > 12.5 | 16.9 | Cc1c(NC(=O)OC(C)(C)C)ccc2nc(N3CCC[C@H]3C(=O)N(C)Cc3ccccn3)oc(=O)c12 [Compound No.90, {5-Methyl-2-[2S-(methyl-pyridin-2-ylmethyl-carbamoyl)-pyrrolidin-1-yl]-4-oxo-4H-benzo[d][1,3]oxazin-6-yl}-carbamic acid tert-butyl ester] | 93.6 |
| > 25 | > 20 | Cc1c(NC(=O)OC(C)(C)C)ccc2nc(N[C@@H](CCc3ccccc3)C(=O)NCc3cccnc3)oc(=O)c12 [Compound No.40, (5-Methyl-4-oxo-2-{3-phenyl-1S-[(pyridin-3-ylmethyl)-carbamoyl]-propylamino}-4H-benzo[d][1,3]oxazin-6-yl)-carbamic acid tert-butyl ester] | 100.0 |
| > 12.5 | 4.2 | Cc1c(NC(=O)c2ccccc2[N+](=O)[O-])ccc2nc(NC(C)(C)C(=O)N(C)CCc3ccccn3)oc(=O)c12 [Compound No.140, N-(5-Methyl-2-{1-methyl-1-[methyl-(2-pyridin-2-yl-ethyl)-carbamoyl]-ethylamino}-4-oxo-4H-benzo[d][1,3]oxazin-6-yl)-2-nitro-benzamide] | 96.8 |
| 24.3 | 19.5 | Cc1c(NC(=O)OC(C)(C)C)ccc2nc(N[C@@H](CC3CCCCC3)C(=O)NCCc3ccccn3)oc(=O)c12 [Compound No.29, {2-[2-Cyclohexyl-1S-(2-pyridin-2-ylethylcarbamoyl)-ethylamino]-5-methyl-4-oxo-4H-benzo[d][1,3]oxazin-6-yl}-carbamic acid tert-butyl ester] | 110.0 |

The remaining lines, values behind:

| Compound | EC90 (HSV-1) [µM] | IC50 (HSV-1 protease) [µM] | Cell viability (% of control) (Vero cells) [%] |
| --- | --- | --- | --- |
| Cc1c(NC(=O)C2CCCC2)ccc2nc(NC(C)(C)C(=O)N(C)CCc3ccccn3)oc(=O)c12 [Compound No.188, Cyclopentanecarboxylic acid (5-methyl-2-{1-methyl-1-[methyl-(2-pyridin-2-yl-ethyl)-carbamoyl]-ethylamino}-4-oxo-4H-benzo[d][1,3]oxazin-6-yl)-amide] | > 12.5 | 1.4 | 91.7 |
| Cc1c(NC(=O)OC(C)(C)C)ccc2nc(N[C@H](C(=O)N(C)Cc3ccccn3)C(C)C)oc(=O)c12 [Compound No.61, {5-Methyl-2-[2-methyl-1S-(methyl-pyridin-2-ylmethyl-carbamoyl)-propylamino]-4-oxo-4H-benzo[d][1,3]oxazin-6-yl}-carbamic acid tert-butyl ester] | 4.7 | 3.3 | 107.0 |
| Cc1c(NC(=O)OC(C)(C)C)ccc2nc(N[C@@H](CCc3ccccc3)C(=O)NCCc3ccccn3)oc(=O)c12 [Compound No.42, {5-Methyl-4-oxo-2-[3-phenyl-1S-(2-pyridin-2-yl-ethylcarbamoyl)-propylamino]-4H-benzo[d][1,3]oxazin-6-yl}-carbamic acid tert-butyl ester] | 10.7 | 1 | 83.0 |
| Cc1c(NC(=O)OC(C)(C)C)ccc2nc(N3CCC[C@H]3C(=O)NCc3ccccn3)oc(=O)c12 [Compound No.86, (5-Methyl-4-oxo-2-{2S-[(pyridin-2-ylmethyl)-carbamoyl]-pyrrolidin-1-yl}-4H-benzo[d][1,3]oxazin-6-yl)-carbamic acid tert-butyl ester] | > 12.5 | 1.1 | 94.6 |
| Cc1c(NC(=O)OC(C)(C)C)ccc2nc(N(C)[C@@H](C)C(=O)NCc3ccccn3)oc(=O)c12 [Compound No.71, [5-Methyl-2-(methyl-{1S-[(pyridin-2-ylmethyl)-carbamoyl]-ethyl}-amino)-4-oxo-4H-benzo[d][1,3]oxazin-6-yl]-carbamic acid tert-butyl ester] | > 12.5 | 0.8 | 107.0 |
| Cc1c(NC(=O)c2ccc(CCl)cc2)ccc2nc(NC(C)(C)C(=O)N(C)CCc3ccccn3)oc(=O)c12 [Compound No.171, 4-Chloromethyl-N-(5-methyl-2-{1-methyl-1-[methyl-(2-pyridin-2-yl-ethyl)-carbamoyl]-ethylamino}-4-oxo-4H-benzo[d][1,3]oxazin-6-yl)-benzamide] | 10.2 | 2.1 | 16.1 |
| Cc1cc(C(=O)Nc2ccc3nc(NC(C)(C)C(=O)N(C)CCc4ccccn4)oc(=O)c3c2C)c(C)o1 [Compound No.176, 2,5-Dimethyl-furan-3-carboxylic acid (5-methyl-2-{1-methyl-1-[methyl-(2-pyridin-2-yl-ethyl)-carbamoyl]-ethylamino}-4-oxo-4H-benzo[d][1,3]oxazin-6-yl)-amide] | > 12.5 | 1.9 | 93.3 |
| Cc1c(NC(=O)C(C)C)ccc2nc(NC(C)(C)C(=O)N(C)CCc3ccccn3)oc(=O)c12 [Compound No.195, 2-(6-Isobutyrylamino-5-methyl-4-oxo-4H-benzo[d][1,3]oxazin-2-ylamino)-2,N-dimethyl-N-(2-pyridin-2-yl-ethyl)-propionamide] | ≥ 12.5 | 2.1 | 99.7 |
| Cc1c(NC(=O)c2scc(S(=O)(=O)C(C)C)c2Cl)ccc2nc(NC(C)(C)C(=O)N(C)CCc3ccccn3)oc(=O)c12 [Compound No.180, 3-Chloro-4-(propane-2-sulfonyl)-thiophene-2-carboxylic acid (5-methyl-2-{1-methyl-1-[methyl-(2-pyridin-2-yl-ethyl)-carbamoyl]-ethylamino}-4-oxo-4H-benzo[d][1,3]oxazin-6-yl)-amide] | > 12.5 | 1.9 | 87.4 |
| Cc1c(NC(=O)CCC2CCCCC2)ccc2nc(NC(C)(C)C(=O)N(C)CCc3ccccn3)oc(=O)c12 [Compound No.160, 2-[6-(3-Cyclohexyl-propionylamino)-5-methyl-4-oxo-4H-benzo[d][1,3]oxazin-2-ylamino]-2,N-dimethyl-N-(2-pyridin-2-yl-ethyl)-propionamide] | 11.3 | 1.1 | 13.0 |
| Cc1c(NC(=O)OC(C)(C)C)ccc2nc(N(C)[C@@H](Cc3ccccc3)C(=O)N(C)Cc3ccccn3)oc(=O)c12 [Compound No.82, (5-Methyl-2-{methyl-[1S-(methyl-pyridin-2-ylmethyl-carbamoyl)-2-phenyl-ethyl]-amino}-4-oxo-4H-benzo[d][1,3]oxazin-6-yl)-carbamic acid tert-butyl ester] | 10.8 | 1.5 | 61.6 |
| Cc1c(NC(=O)OC(C)(C)C)ccc2nc(N(C)[C@@H](C)C(=O)NCc3cccnc3)oc(=O)c12 [Compound No.72, [5-Methyl-2-(methyl-{1S-[(pyridin-3-ylmethyl)-carbamoyl]-ethyl}-amino)-4-oxo-4H-benzo[d][1,3]oxazin-6-yl]-carbamic acid tert-butyl ester] | > 12.5 | 1.1 | 90.7 |
| Cc1c(NC(=O)OC(C)(C)C)ccc2nc(N(C)[C@@H](C)C(=O)N(C)Cc3ccccn3)oc(=O)c12 [Compound No.75, (5-Methyl-2-{methyl-[1S-(methyl-pyridin-2-ylmethyl-carbamoyl)-ethyl]-amino}-4-oxo-4H-benzo[d][1,3]oxazin-6-yl)-carbamic acid tert-butyl ester] | > 12.5 | 2.2 | 93.1 |

Source: US20040116420A1 (priority 2001, published 2004)
